Results as given in paper PMC7972453, “The allosteric modulation of complement C5 by knob domain peptides” (eLife, 2021).
“Also recorded” adds a separate entry of the source. Like-named read-outs stand apart in the source and are kept apart here. Bridges are numbered along the chain shown (N, C = ends). Where no end group is shown, it is not given here.

Tests used:
[1] = system: classical pathway mediated C5a release (complement C5); experiment: Inhibition of classical pathway mediated C5a release (ELISA); type: biochemical, human; settings: n=3 (K8: n=5), ND* = Not detected
Protocol: For the C5b ELISA, assays were run using the CP and AP Complement functional ELISA kits (Svar Life Science, Malmö, Sweden). For sample preparation, serum was diluted as per the respective protocol for the CP and AP assays. Serial dilutions of peptides were prepared and allowed to incubate with serum for 15 min at room temperature prior to plating.
For the C5a ELISA, assays were run using the Complement C5a Human ELISA Kit (Invitrogen, Renfrew, UK). For sample preparation, at the end of the 37°C incubation of the serum/peptide samples on the C5b ELISA plate, 50 µL of the diluted, activated serum was transferred to a C5a ELISA plate containing 50 µL/well of assay buffer. All subsequent experimental steps were performed as described in the protocol.
Table 1.3. Inhibition of classical pathway mediated C5a release.
Data from n=3 independent titrations, unless otherwise stated

human C5b-6 = human C5b-6 (Homo sapiens, UniProt P01031+P13671); experiment: SPR single-cycle kinetics, binding to C5b-6; set-up: Upon cleavage of C5a, the remaining domains of the α-chain undergo a substantial conformational change; purchased Complement Technologies, Tyler, TX
Protocol: On a Biacore 8K (GE Healthcare, Amersham, UK), human C5b was immobilised on a CM5 chip (GE Healthcare, Amersham, UK). Flow cells were activated using a standard immobilisation protocol: EDC/NHS was mixed at 1:1 ratio (flow rate, 10 µL/min; contact time, 30 s). C5b, at 1 µg/mL, or C5b-6 (Complement Technologies, Tyler, TX), at 2 µg/mL, in pH 4.5 sodium acetate buffer, were immobilised on flow cell two only (flow rate, 10 µL/min; contact time, 420 s). Finally, ethanolamine was applied to both flow cells (flow rate, 10 µL/min; contact time, 420 s). A final immobilisation level of 500–700 RUs was obtained for C5b and 1000–1150 RUs were obtained for C5b-6. Single-cycle kinetics were measured using a seven-point, threefold serial dilution (spanning a range of 1 µM to 1.4 nM) in HBS-EP buffer (GE Healthcare, Amersham, UK). A high flow rate of 40 µL/min was used, with a contact time of 300 s and a dissociation time of 2700 s. Binding to the reference surface was subtracted, and the data were fitted to a single-site binding model using Biacore evaluation software. All sensorgrams were inspected for evidence of mass transport limitation using the flow rate-independent component of the mass transfer constant (tc).
Table 4.2. SPR single-cycle kinetics of knob domains binding to human C5b-6.

[2] = system: alternative pathway C5b deposition (complement C5); experiment: Alternative pathway C5b deposition ELISA; type: biochemical, human; settings: n=3 (K8: n=5; K92: n=4), ND* = Not detected
From the text: Figure 1. Functional modulation of C5 via knob domain peptides. […] Following activation of C1q via antibody Fc, C4 and C2 are cleaved and form C4bC2a (the CP C3 convertase) which cleaves C3 into C3a (not shown) and C3b. At high C3b concentrations, C4bC2aC3b (the CP […]) forms and cleaves C5 into C5a and C5b. C5b associates with C6 and forms the membrane attack complex (MAC) with C7, C8, and multiple copies of C9. […] In the presence of factor B and factor D, C3bBb (the AP C3 convertase) generates additional C3b, prompting formation of C3bBbC3b (the AP C5 convertase), which cleaves C5 into C5a and C5b, driving MAC formation. CP-driven ELISAs (C) and AP-driven ELISAs (D) are shown. For both pathways, the inhibition of C3d (the surface-associated domain of C3b, which is upstream of C5 inhibition), C5a release, and C5b neo-epitope formation and C9 deposition were tracked within the MAC. […] For the AP assays, 5% serum (v/v) gives a putative C5 concentration of 20 nM. For the CP assays, 1% serum (v/v) gives a putative C5 concentration of 4 nM, based on a reported C5 serum concentration of 397 nM/75 µg/mL ([Sjöholm, 1975]).
For the C5b ELISA, assays were run using the CP and AP Complement functional ELISA kits (Svar Life Science, Malmö, Sweden). For sample preparation, serum was diluted as per the respective protocol for the CP and AP assays. […]

[3] = system: rabbit erythrocytes (alternative pathway haemolysis); experiment: Inhibition of alternative pathway haemolysis; type: cell-based, rabbit erythrocytes; normal human serum; settings: 4.5% serum
Protocol: GVB^++ or Mg EGTA buffers, which had been supplemented with 2.5% glucose (w/v), were used for the CP and AP assays, respectively. For the AP, 150 µL of rabbit erythrocytes (TCS Biosciences, Botolph Claydon, UK) were washed twice, by addition of 1 mL of buffer and centrifugation at 800 ×g for 1 min, and finally resuspended in 500 µL of buffer. For the CP, 150 µL sheep erythrocytes (TCS Biosciences, Botolph Claydon, UK) were washed twice with 1 mL of buffer and sensitised with a 1/1000 dilution of rabbit anti-sheep red blood cell stroma antibody (S1389, Sigma Aldrich, Gillingham, UK). After a 30°C/30 min incubation, with shaking, the cells were rewashed and resuspended with 500 µL of buffer. Serial dilutions of peptide were prepared in the respective buffers and normal human serum was added at 1% for the CP and 4.5% for the AP (corresponding to CH50 of the serum). Also, 90 µL of peptide–serum mixtures were plated into a V-bottom 96-well microtiter plate (Corning) and 10 µL of erythrocytes were added. Plates were incubated for 30 min at 37°C, with shaking. Finally, 50 µL of buffer was added, the plates centrifuged at 800 ×g, and 80 µL of supernatant was transferred to an ELISA plate (Nunc) and absorbance measured at 405 nm.
Table 1.8. Inhibition of alternative pathway haemolysis.

Sequence of human C5b-6 (P01031 752-1676 limits assumed): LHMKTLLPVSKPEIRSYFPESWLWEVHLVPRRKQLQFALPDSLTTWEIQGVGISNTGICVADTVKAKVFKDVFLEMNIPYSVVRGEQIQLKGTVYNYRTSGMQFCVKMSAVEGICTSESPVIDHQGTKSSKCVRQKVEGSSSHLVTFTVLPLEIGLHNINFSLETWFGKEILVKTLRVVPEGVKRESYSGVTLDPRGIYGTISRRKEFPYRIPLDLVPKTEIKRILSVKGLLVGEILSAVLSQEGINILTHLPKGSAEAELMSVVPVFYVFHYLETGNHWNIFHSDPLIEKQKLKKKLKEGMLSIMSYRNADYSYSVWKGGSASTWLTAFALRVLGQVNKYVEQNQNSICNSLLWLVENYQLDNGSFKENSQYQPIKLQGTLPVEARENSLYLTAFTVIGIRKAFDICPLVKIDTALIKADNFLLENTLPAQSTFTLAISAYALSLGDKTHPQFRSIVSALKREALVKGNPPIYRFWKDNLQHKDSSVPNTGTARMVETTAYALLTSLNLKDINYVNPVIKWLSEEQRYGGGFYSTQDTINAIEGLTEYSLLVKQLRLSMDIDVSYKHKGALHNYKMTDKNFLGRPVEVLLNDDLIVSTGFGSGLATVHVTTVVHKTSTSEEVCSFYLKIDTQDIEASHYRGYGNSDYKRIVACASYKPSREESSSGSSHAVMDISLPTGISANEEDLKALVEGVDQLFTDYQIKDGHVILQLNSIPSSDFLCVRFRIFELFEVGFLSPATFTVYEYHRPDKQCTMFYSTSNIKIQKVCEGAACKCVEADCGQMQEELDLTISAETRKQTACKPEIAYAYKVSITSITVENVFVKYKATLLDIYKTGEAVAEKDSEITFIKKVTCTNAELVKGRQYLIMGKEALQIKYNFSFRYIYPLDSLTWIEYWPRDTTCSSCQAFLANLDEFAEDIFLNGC
Sequence of human C5b-6 (P01031 19-673 limits assumed): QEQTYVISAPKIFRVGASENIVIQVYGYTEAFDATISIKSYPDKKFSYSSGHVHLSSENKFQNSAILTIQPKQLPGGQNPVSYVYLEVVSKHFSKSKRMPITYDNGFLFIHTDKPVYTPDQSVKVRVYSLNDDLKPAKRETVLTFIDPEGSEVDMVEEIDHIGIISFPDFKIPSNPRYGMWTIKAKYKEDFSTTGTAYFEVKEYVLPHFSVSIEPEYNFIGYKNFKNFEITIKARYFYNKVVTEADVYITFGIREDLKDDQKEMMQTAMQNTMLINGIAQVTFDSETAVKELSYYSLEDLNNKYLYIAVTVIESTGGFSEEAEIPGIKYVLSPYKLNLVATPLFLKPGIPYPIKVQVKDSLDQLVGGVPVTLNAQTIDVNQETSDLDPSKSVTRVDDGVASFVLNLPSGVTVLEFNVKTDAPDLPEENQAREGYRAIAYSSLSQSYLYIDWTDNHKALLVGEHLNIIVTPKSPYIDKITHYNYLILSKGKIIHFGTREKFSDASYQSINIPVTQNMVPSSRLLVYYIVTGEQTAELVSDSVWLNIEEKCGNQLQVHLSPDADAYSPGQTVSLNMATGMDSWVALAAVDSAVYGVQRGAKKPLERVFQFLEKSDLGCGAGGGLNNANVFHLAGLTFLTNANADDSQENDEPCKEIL
Sequence of human C5b-6 (P13671 22-934 partner): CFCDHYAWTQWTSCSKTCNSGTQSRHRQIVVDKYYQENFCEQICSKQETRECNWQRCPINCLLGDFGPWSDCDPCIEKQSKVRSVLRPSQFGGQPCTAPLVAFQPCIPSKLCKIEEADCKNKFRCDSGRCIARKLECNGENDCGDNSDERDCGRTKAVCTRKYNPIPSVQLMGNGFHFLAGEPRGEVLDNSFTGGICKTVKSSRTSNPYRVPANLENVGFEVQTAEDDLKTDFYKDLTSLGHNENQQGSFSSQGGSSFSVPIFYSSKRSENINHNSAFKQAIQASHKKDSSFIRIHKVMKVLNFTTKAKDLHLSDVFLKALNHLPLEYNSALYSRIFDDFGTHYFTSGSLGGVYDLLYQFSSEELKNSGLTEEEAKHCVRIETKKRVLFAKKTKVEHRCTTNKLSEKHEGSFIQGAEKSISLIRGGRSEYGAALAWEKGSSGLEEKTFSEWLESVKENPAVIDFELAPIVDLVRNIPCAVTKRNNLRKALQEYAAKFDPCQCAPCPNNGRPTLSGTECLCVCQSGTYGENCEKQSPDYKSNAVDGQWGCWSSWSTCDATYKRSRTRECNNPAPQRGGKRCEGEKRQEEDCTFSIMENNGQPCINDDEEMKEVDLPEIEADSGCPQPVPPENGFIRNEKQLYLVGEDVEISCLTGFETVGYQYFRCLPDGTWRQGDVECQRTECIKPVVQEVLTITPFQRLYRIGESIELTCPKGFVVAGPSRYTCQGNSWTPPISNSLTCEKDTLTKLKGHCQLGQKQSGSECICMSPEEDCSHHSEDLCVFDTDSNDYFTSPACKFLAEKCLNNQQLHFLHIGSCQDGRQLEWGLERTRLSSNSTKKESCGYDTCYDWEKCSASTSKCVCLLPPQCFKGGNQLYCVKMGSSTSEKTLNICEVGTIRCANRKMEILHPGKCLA

## SVCPDGFDWGYGCAAGSSRFCTRHDWCCYDERADSHTYGFCTGNRVENLYFQ (disulfide 3-28, 13-21, 27-41) [K8]
[1]; CP C5a release
  Average Emax: 57.7%
[1]; CP, C5a Human ELISA kit (Invitrogen) on activated serum from C5b ELISA plate, read-out: Geomean IC50
  IC50: 0.0099 µM
Human C5b-6; read-out: mean koff, Biacore 8K, HBS-EP, summary of n=4
  koff: 0.000295 s⁻¹
Human C5b-6; read-out: mean kon, Biacore 8K, HBS-EP, summary of n=4
  kon: 12500 M⁻¹ s⁻¹
Human C5b-6; replicate n=1
  Stoichiometric ratio: 0.3
  koff: 0.000282 s⁻¹
  kon: 10100 M⁻¹ s⁻¹
Human C5b-6; replicate n=2
  Stoichiometric ratio: 0.3
  koff: 0.000384 s⁻¹
  kon: 12100 M⁻¹ s⁻¹
Human C5b-6; replicate n=3
  Stoichiometric ratio: 0.5
  koff: 0.00024 s⁻¹
Human C5b-6; replicate n=4
  Stoichiometric ratio: 0.3
  koff: 0.000277 s⁻¹
  kon: 15600 M⁻¹ s⁻¹
Human C5b-6; summary of n=4
  Mean stoichiometric ratio: 0.4
[2]; AP C5b ELISA, preincubated 15 min RT
  Average Emax: 91.8%
[2]; AP functional ELISA kit (Svar), peptide preincubated with human serum 15 min RT, AP 5% serum, putative 20 nM C5, read-out: Geomean IC50
  IC50: 0.0292 µM
[3]
  inhibition of AP haemolysis (in words): did not show efficacy in the AP haemolysis assay, below 10 µM; also recorded: did not show activity in the AP assay below 10 µM
